We go through 4 molecules from patent publication US20190055517A1, “Cell Line of M2c Macrophage and Its Applications” (National Pingtung University of Science and Technology, priority 2017, published 2019).

For data set [1], the system named is murine M2 macrophage. Kind of data set: Phagocytosis of FITC-Latex beads with PE-anti-MERTK staining (flow cytometry, fluorescence microscopy). The class given is cell-based. The settings on record: fluorescence microscope, PE-MERTK, FIG. 18. As to the method: In this example, experiment was performed to evaluate the effect of baicalin induced differentiated […] macrophages in promoting phagocytosis. Treatment conditions of drugs in each group is listed in chart 2, and control group is cultured in RPMI1640 (10% FCS) without any drugs. After treatment, collect 5×10^5 treated cells respectively and add 50 μl FITC-Latex beads (Phagocytosis assay kit (IgG FITC), Cayman Chemical, USA.) to perform phagocytosis experiment for 24 hours, and then use PE-anti-MERTK antibody to mark the cells and observe the fluorescence expression with flow cytometry.
On the technique in general: A flow cytometer gives signals particle by particle.

Data set [2] concerns murine M2 macrophage. Kind of data set: Macrophage phenotype by flow cytometry (CD86, CD206) after drug-induced differentiation. The class given is cell-based. Particulars: conditions of chart 2, p<0.05, FIG. 3. As to the method:
(§1) Use PBS containing 0.5% BSA to flush out bone marrow cells from murine (C57BL/6J, 8-20 weeks, Taiwan National Laboratory Animal Center) femur, then use Ficoll-Hypaque (GE healthcare, SWEDEN) to isolate monocytes.
(§2) Then, incubate 2×10^6 monocytes in 50 ng/ml M-CSF contained RPMI 1640 (10% FCS) medium under 37° c., 5% CO2 for seven days to induce M2 macrophage polarization. On the eighth day, collect 2×10^5 M2 macrophage and incubate them in RPMI 1640 (10% FCS) medium with Baicalin (50 μM, Tokyo Chemical Industry, JAPAN) for 24 hours. Baicalin will induce M2 macrophage to differentiate into M2C macrophage.
Embodiment 1 is prepared by the steps described above, isolate monocytes from murine bone marrow and use M-CSF to induce differentiation of M2 macrophage, and then use baicalin to induce M2C macrophage polarization. In comparison 1, incubate murine M2 macrophage in RPMI 1640 (10% FCS) containing LPS (lipopolysaccharide, 1 μg/ml, Sigma-Aldrich) for 2 hours. In comparison 2, incubate murine M2 macrophage in medium containing IL-4 ([…] Guidance System, Cambridge, UK) for 24 hours. The control group of M2 macrophage is incubated in RPMI 1640 (10% FCS) without any drugs. The conditions are shown below in chart 2.
After induced differentiation is complete, use flow cytometry to analyse the macrophage phenotype, in the meantime, also use real time PCR (qPCR) to observe mRNA expression level of each gene.
(§3) FIG. 2˜4 show results of macrophage phenotypes analysed by flow cytometry.

The next data set deals with Raw264.7 macrophages. Kind of data set: H2O2 induction of apoptotic cells (annexin-V / 7-AAD flow cytometry). The class given is cell-based, murine. The settings on record: 1.5 mM H2O2 versus 0.5 and 1 mM, 12 hours, FIG. 19. As to the method:
Inducing apoptotic cells: minor changes were made from steps of obtaining apoptotic cells based on previous studies (Piao et al., 2011 and Fong et al 2007), detailed steps comprising: culture 1.5×10^6 RAW264.7 macrophages with DMEM medium containing 10% FBS in incubator (37° C., 5% CO2). After culturing overnight, treat with 0.5, 1, 1.5 mM H2O2 respectively in DMEM for 12 hours. Next, remove the DMEM medium containing H2O2 and wash the cells with PBS buffer, then use micropipette to transfer cells to 15 ml centrifuge tube and centrifuge cells at 4° C. for 5 mins at rotating speed of 500×g. Remove the supernatant and resuspend the cells with 95 μl […]. Following that, dye the cells with fluorescence marker annexin-V and 7-AAD (BD Bioscience) for 20 mins on ice, avoiding light. After marking the cells, use flow cytometry (FACS BD ARIA II) to detect fluorescence performance. Analysed by software CellQuest (BD Bioscience). If the cells were positive for annexin-V and negative for 7-AAD, the cells will be identified as early apoptotic cells; if the cells were positive for annexin-V and positive for 7-AAD, the cells would be identified as late apoptotic cells.

In data set [3] the test system is monocytes from murine bone marrow. Kind of data set: M-CSF induced M2 polarization of bone marrow monocytes (flow cytometry CD11b, CD206, CD80). The class given is cell-based. Particulars: 50 ng/ml M-CSF, treated for 7 days, p<0.05, FIG. 2. Here is the method: as §1, §2, §3

With “lipopolysaccharide [LPS, reference compound]”, in the data set with murine M2 macrophage [1], the “MERTK fluorescence distribution of cells after phagocytosing FITC-Latex beads” value was “comparatively weaker”. The “percentage of M1 macrophage (CD86+CD206-)” value in the data set on murine M2 macrophage [2] is listed as “higher”.
On to `OO` [Embodiment H2O2, H2O2], for which the “percentage of apoptotic cells” value with Raw264.7 macrophages is “higher percentage of apoptotic cells”.

B1: macrophage colony-stimulating factor (protein, UniProt P09603 33-554, looked up)
Macrophage colony-stimulating …: EEVSEYCSHMIGSGHLQSLQRLIDSQMETSCQITFEFVDQEQLKDPVCYLKKAFLLVQDIMEDTMRFRDNTPNAIAIVQLQELSLRLKSCFTKDYEEHDKACVRTFYETPLQLLEKVKNVFNETKNLLDKDWNIFSKNCNNSFAECSSQDVVTKPDCNCLYPKAIPSSDPASVSPHQPLAPSMAPVAGLTWEDSEGTEGSSLLPGEQPLHTVDPGSAKQRPPRSTCQSFEPPETPVVKDSTIGGSPQPRPSVGAFNPGMEDILDSAMGTNWVPEEASGEASEIPVPQGTELSPSRPGGGSMQTEPARPSNFLSASSPLPASAKGQQPADVTGTALPRVGPVRPTGQDWNHTPQKTDHPSALLRDPPEPGSPRISSLRPQGLSNPSTLSAQPQLSRSHSSGSVLPLGELEGRRSTRDRRSPAEPEGGPASEGAARPLPRFNSVPLTDTGHERQSEGSFSPQLQESVFHLLVPSVILVLLAVGGLLFYRWRRRSHQEPQRADSPLEQPEGSPLTQDDRQVELPV
notes: 50 ng/ml, induces M2 macrophage polarization of monocytes
For the molecule B1, the “percentage of cells expressing CD11b and CD206 at the same time (CD11b+CD206+)” value in data set [3] is on record as “highest percentage”.

B2: IL-4: cytokine, 10 ng/ml, 24 hours, comparison drug to induce differentiation (protein, UniProt P05112 25-153, looked up)
Interleukin-4: HKCDITLQEIIKTLNSLTEQKTLCTELTVTDIFAASKNTTEKETFCRAATVLRQFYSHHEKDTRCLGATAQQFHRHKQLIRFLKRLDRNLWGLAGLNSCPVKEANQSTLENFLERLKTIMREKYSKCSS
Consider B2, for which the “percentage of M2 macrophage (CD86-CD206+)” value with murine M2 macrophage [2] was “higher”.
